Calls of active or inactive are those of the source. No rule for the calls is given here.
System: rodent lifetime carcinogenesis bioassay, tumor incidence TD50
Assay: carcinogenic potency in animals, long-term in vivo studies, CPDB compilation (AID 1745844)

Structure (SMILES): CC(Cl)CCl (stereo not given)
- TD50 (mouse, strain B6C3F1, females, by gavage, site: any site (literature study), lesion: several types, types named in the paper, dosed 103 weeks, study length 105 weeks): 341 mg/kg/day
- TD50 (mouse, strain B6C3F1, females, by gavage, site: forestomach, lesion: squamous-cell carcinoma + squamous-cell papilloma, dosed 103 weeks, study length 105 weeks): 1020 mg/kg/day
- TD50 (mouse, strain B6C3F1, females, by gavage, site: liver, lesion: hepatocellular adenoma + hepatocellular carcinoma + neoplastic nodule, dosed 103 weeks, study length 105 weeks): 346 mg/kg/day
- TD50 (mouse, strain B6C3F1, females, by gavage, site: liver, lesion: hepatocellular adenoma + hepatocellular carcinoma, dosed 103 weeks, study length 105 weeks): 346 mg/kg/day
- TD50 (mouse, strain B6C3F1, females, by gavage, site: liver, lesion: hepatocellular adenoma, dosed 103 weeks, study length 105 weeks): 562 mg/kg/day
- TD50 (mouse, strain B6C3F1, males, by gavage, site: any site (literature study), lesion: several types, types named in the paper, dosed 103 weeks, study length 105 weeks): 397 mg/kg/day
- TD50 (mouse, strain B6C3F1, males, by gavage, site: forestomach, lesion: squamous-cell papilloma, dosed 103 weeks, study length 105 weeks): 1520 mg/kg/day
- TD50 (mouse, strain B6C3F1, males, by gavage, site: liver, lesion: hepatocellular adenoma + hepatocellular carcinoma + neoplastic nodule, dosed 103 weeks, study length 105 weeks): 229 mg/kg/day
- TD50 (mouse, strain B6C3F1, males, by gavage, site: liver, lesion: hepatocellular adenoma + hepatocellular carcinoma, dosed 103 weeks, study length 105 weeks): 229 mg/kg/day
- TD50 (mouse, strain B6C3F1, males, by gavage, site: liver, lesion: hepatocellular adenoma, dosed 103 weeks, study length 105 weeks): 384 mg/kg/day
- TD50 (mouse, strain B6C3F1, males, by gavage, site: lung, lesion: alveolar/bronchiolar adenoma + alveolar/bronchiolar carcinoma, dosed 103 weeks, study length 105 weeks): 5070 mg/kg/day
- TD50 (rat, strain Fischer 344, females, by gavage, site: any site (literature study), lesion: several types, types named in the paper, dosed 103 weeks, study length 105 weeks): 240 mg/kg/day
- TD50 (rat, strain Fischer 344, females, by gavage, site: mammary gland, lesion: adenocarcinoma, NOS, dosed 103 weeks, study length 105 weeks): 767 mg/kg/day
- TD50 (rat, strain Fischer 344, males, by gavage, site: any site (literature study), lesion: several types, types named in the paper, dosed 103 weeks, study length 106 weeks): 69.7 mg/kg/day (inactive)
- TD50 (rat, strain Fischer 344, males, by gavage, site: liver, lesion: hepatocellular adenoma + hepatocellular carcinoma + neoplastic nodule, dosed 103 weeks, study length 106 weeks): 2570 mg/kg/day

Structure (SMILES): CC(O)CN(CCO)N=O (stereo not given)
- TD50 (rat, strain Fischer 344, females, in drinking water, site: esophagus, lesion: several types, types named in the paper, dosed 50 weeks, study length 75 weeks): 6.74 mg/kg/day
- TD50 (rat, strain Fischer 344, females, in drinking water, site: liver, lesion: angiosarcoma, dosed 50 weeks, study length 75 weeks): 4.5 mg/kg/day
- TD50 (rat, strain Fischer 344, females, in drinking water, site: liver, lesion: hepatocellular carcinoma, dosed 50 weeks, study length 75 weeks): 1.02 mg/kg/day
- TD50 (rat, strain Fischer 344, females, in drinking water, site: liver, lesion: several types, types named in the paper, dosed 50 weeks, study length 75 weeks): 1.12 mg/kg/day
- TD50 (rat, strain Fischer 344, females, in drinking water, site: nasal cavity, lesion: olfactory carcinoma, dosed 50 weeks, study length 75 weeks): 5.44 mg/kg/day

Structure (SMILES): CCn1c2ccccc2c2cc(N)ccc21
- TD50 (mouse, strain B6C3F1, females, in feed, site: any site (literature study), lesion: several types, types named in the paper, dosed 78 weeks, study length 95 weeks): 41.8 mg/kg/day
- TD50 (mouse, strain B6C3F1, females, in feed, site: liver, lesion: hepatocellular adenoma + hepatocellular carcinoma + neoplastic nodule, dosed 78 weeks, study length 95 weeks): 33 mg/kg/day
- TD50 (mouse, strain B6C3F1, females, in feed, site: liver, lesion: hepatocellular carcinoma, dosed 78 weeks, study length 95 weeks): 33 mg/kg/day
- TD50 (mouse, strain B6C3F1, females, in feed, site: lung, lesion: alveolar/bronchiolar adenoma + alveolar/bronchiolar carcinoma, dosed 78 weeks, study length 95 weeks): 1780 mg/kg/day
- TD50 (mouse, strain B6C3F1, males, in feed, site: any site (literature study), lesion: several types, types named in the paper, dosed 78 weeks, study length 95 weeks): 70.6 mg/kg/day
- TD50 (mouse, strain B6C3F1, males, in feed, site: liver, lesion: hepatocellular adenoma + hepatocellular carcinoma + neoplastic nodule, dosed 78 weeks, study length 95 weeks): 49.8 mg/kg/day
- TD50 (mouse, strain B6C3F1, males, in feed, site: liver, lesion: hepatocellular adenoma + hepatocellular carcinoma, dosed 78 weeks, study length 95 weeks): 49.8 mg/kg/day
- TD50 (mouse, strain B6C3F1, males, in feed, site: liver, lesion: hepatocellular carcinoma, dosed 78 weeks, study length 95 weeks): 46.4 mg/kg/day
- TD50 (rat, strain Fischer 344, females, in feed, site: Zymbal's gland, lesion: carcinoma, NOS + squamous-cell carcinoma, dosed 78 weeks, study length 107 weeks): 151 mg/kg/day
- TD50 (rat, strain Fischer 344, females, in feed, site: Zymbal's gland, lesion: squamous-cell carcinoma, dosed 78 weeks, study length 107 weeks): 212 mg/kg/day
- TD50 (rat, strain Fischer 344, females, in feed, site: any site (literature study), lesion: several types, types named in the paper, dosed 78 weeks, study length 107 weeks): 44.7 mg/kg/day
- TD50 (rat, strain Fischer 344, females, in feed, site: liver + uterus + Zymbal's gland, lesion: hepatocellular carcinoma + neoplastic nodule + adenocarcinoma, NOS + carcinoma, NOS + squamous-cell carcinoma, dosed 78 weeks, study length 107 weeks): 55.1 mg/kg/day
- TD50 (rat, strain Fischer 344, females, in feed, site: liver, lesion: hepatocellular adenoma + hepatocellular carcinoma + neoplastic nodule, dosed 78 weeks, study length 107 weeks): 237 mg/kg/day
- TD50 (rat, strain Fischer 344, females, in feed, site: liver, lesion: hepatocellular carcinoma + neoplastic nodule, dosed 78 weeks, study length 107 weeks): 237 mg/kg/day
- TD50 (rat, strain Fischer 344, females, in feed, site: uterus, lesion: adenocarcinoma, NOS, dosed 78 weeks, study length 107 weeks): 106 mg/kg/day
- TD50 (rat, strain Fischer 344, males, in feed, site: Zymbal's gland, lesion: carcinoma, NOS + squamous-cell carcinoma, dosed 78 weeks, study length 106 weeks): 240 mg/kg/day
- TD50 (rat, strain Fischer 344, males, in feed, site: any site (literature study), lesion: several types, types named in the paper, dosed 78 weeks, study length 106 weeks): 42.7 mg/kg/day
- TD50 (rat, strain Fischer 344, males, in feed, site: liver + skin + subcutaneous tissue + Zymbal's gland, lesion: hepatocellular carcinoma + neoplastic nodule + basal-cell carcinoma + squamous-cell carcinoma + squamous-cell papilloma + carcinom, dosed 78 weeks, study length 106 weeks): 28.1 mg/kg/day
- TD50 (rat, strain Fischer 344, males, in feed, site: liver, lesion: hepatocellular adenoma + hepatocellular carcinoma + neoplastic nodule, dosed 78 weeks, study length 106 weeks): 39.2 mg/kg/day
- TD50 (rat, strain Fischer 344, males, in feed, site: liver, lesion: hepatocellular carcinoma + neoplastic nodule, dosed 78 weeks, study length 106 weeks): 39.2 mg/kg/day
- TD50 (rat, strain Fischer 344, males, in feed, site: liver, lesion: hepatocellular carcinoma, dosed 78 weeks, study length 106 weeks): 156 mg/kg/day
- TD50 (rat, strain Fischer 344, males, in feed, site: skin + subcutaneous tissue, lesion: basal-cell carcinoma + squamous-cell carcinoma + squamous-cell papilloma, dosed 78 weeks, study length 106 weeks): 203 mg/kg/day
- TD50 (rat, strain Fischer 344, males, in feed, site: skin + subcutaneous tissue, lesion: squamous-cell carcinoma + squamous-cell papilloma, dosed 78 weeks, study length 106 weeks): 257 mg/kg/day

Structure (SMILES): CCCCCCCCCCCCCCCC(=O)OC/C=C(C)/C=C/C=C(C)/C=C/C1=C(C)CCCC1(C)C
- carcinogen call (mouse, strain ICR/Jcl, males, in drinking water, site: forestomach, lesion: one or several types, types not named, dosed 66 weeks, study length 66 weeks): negative (inactive)

Structure (SMILES): ClCOCCCCOCCl
- carcinogen call (mouse, strain Ha/ICR, females, i.p., site: abdomen, lesion: sarcoma, dosed 81 weeks, study length 81 weeks): negative (inactive)

Reference: PubChem BioAssay AID1745844 (Carcinogenic Potency Database (CPDB), 2022)
